In PubChem BioAssay (NCI):
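Briefly, cells in 96-well plates were exposed to five compound concentrations for 48 h, and endpoints were estimated by linear interpolation. Definition used: TGI = concentration required for complete inhibition of growth.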

Key:
Test in all cases: DTP human tumour cell line panel, 48 h
U251 CNS = system: U251 CNS
HOP-62 NSCLC = system: HOP-62 NSCLC
HCT-15 colon = system: HCT-15 colon
SF-295 CNS = system: SF-295 CNS
MDA-MB-231 breast = system: MDA-MB-231 breast
BT-549 breast = system: BT-549 breast
SNB-19 CNS = system: SNB-19 CNS
OVCAR-8 ovarian = system: OVCAR-8 ovarian
HT29 colon = system: HT29 colon
SK-MEL-2 melanoma = system: SK-MEL-2 melanoma
M14 melanoma = system: M14 melanoma
HS 578T breast = system: HS 578T breast
ACHN renal = system: ACHN renal
EKVX NSCLC = system: EKVX NSCLC
NCI-H460 lung = system: NCI-H460 lung
SK-MEL-28 melanoma = system: SK-MEL-28 melanoma
SK-MEL-5 melanoma = system: SK-MEL-5 melanoma
LOX IMVI melanoma = system: LOX IMVI melanoma
TK-10 renal = system: TK-10 renal
MCF7 breast = system: MCF7 breast
SR leukemia = system: SR leukemia
T-47D breast = system: T-47D breast
SF-539 CNS = system: SF-539 CNS
HL-60(TB) leukemia = system: HL-60(TB) leukemia
HCT-116 colon = system: HCT-116 colon
786-0 renal = system: 786-0 renal
OVCAR-4 ovarian = system: OVCAR-4 ovarian
UACC-257 melanoma = system: UACC-257 melanoma
RXF 393 renal = system: RXF 393 renal
SF-268 CNS = system: SF-268 CNS
K-562 leukemia = system: K-562 leukemia
NCI-H522 lung = system: NCI-H522 lung
HOP-92 NSCLC = system: HOP-92 NSCLC
OVCAR-3 ovarian = system: OVCAR-3 ovarian
NCI-H226 lung = system: NCI-H226 lung
SNB-75 CNS = system: SNB-75 CNS
SW-620 colon = system: SW-620 colon
UO-31 renal = system: UO-31 renal
CAKI-1 renal = system: CAKI-1 renal
A549 NSCLC = system: A549 NSCLC
IGROV1 ovarian = system: IGROV1 ovarian
NCI/ADR-RES ovarian = system: NCI/ADR-RES ovarian
OVCAR-5 ovarian = system: OVCAR-5 ovarian
PC-3 prostate = system: PC-3 prostate
KM12 colon = system: KM12 colon
NCI-H23 lung = system: NCI-H23 lung
RPMI-8226 leukemia = system: RPMI-8226 leukemia
MDA-MB-435 = system: MDA-MB-435
MOLT-4 leukemia = system: MOLT-4 leukemia
A498 renal = system: A498 renal
DU-145 prostate = system: DU-145 prostate
MDA-N = system: MDA-N
SN12C renal = system: SN12C renal
HCC-2998 colon = system: HCC-2998 colon
CCRF-CEM leukemia = system: CCRF-CEM leukemia
COLO 205 colon = system: COLO 205 colon
MALME-3M melanoma = system: MALME-3M melanoma
SK-OV-3 ovarian = system: SK-OV-3 ovarian

Cc1cc2nc3c(C(O)CO)nn(-c4ccccc4)c3nc2cc1C (stereo not drawn) was tested, and the TGI (U251 CNS) was 38.4 µM, the TGI (HOP-62 NSCLC) was 44 µM and the TGI (HCT-15 colon) was 42.6 µM. For the same molecule, the TGI (SF-295 CNS) was 35.7 µM, the TGI (MDA-MB-231 breast) was 55 µM and the TGI (BT-549 breast) was 42.8 µM. For the same molecule, the TGI (SNB-19 CNS) was 56.1 µM, the TGI (OVCAR-8 ovarian) was 76.8 µM and the TGI (HT29 colon) was 46.5 µM. For the same molecule, the TGI (SK-MEL-2 melanoma) was 56.2 µM, the TGI (M14 melanoma) was over 100 µM and the TGI (HS 578T breast) was 70.9 µM. It also gave a TGI (ACHN renal) of 32.1 µM, a TGI (EKVX NSCLC) of 63.4 µM and a TGI (NCI-H460 lung) of 37.4 µM. The TGI (SK-MEL-28 melanoma) was 42 µM, the TGI (SK-MEL-5 melanoma) was over 100 µM and the TGI (LOX IMVI melanoma) was 66.3 µM. The TGI (TK-10 renal) was 35.4 µM, the TGI (MCF7 breast) was 47.3 µM and the TGI (SR leukemia) was 33.4 µM. For the same molecule, the TGI (T-47D breast) was 91.5 µM, the TGI (SF-539 CNS) was 50.2 µM and the TGI (HL-60(TB) leukemia) was 45.8 µM. For the same molecule, the TGI (HCT-116 colon) was 36.6 µM, the TGI (786-0 renal) was 42.8 µM and the TGI (OVCAR-4 ovarian) was 53.4 µM. It also gave a TGI (UACC-257 melanoma) of 48.1 µM, a TGI (RXF 393 renal) of 43.6 µM and a TGI (SF-268 CNS) of 63.3 µM. It also gave a TGI (K-562 leukemia) of 59.3 µM, a TGI (NCI-H522 lung) of 68 µM and a TGI (HOP-92 NSCLC) of 45.4 µM. It also gave a TGI (OVCAR-3 ovarian) of 35.1 µM, a TGI (NCI-H226 lung) of 98.2 µM and a TGI (SNB-75 CNS) of 51.9 µM. The TGI (SW-620 colon) was 55.4 µM, the TGI (UO-31 renal) was 36.1 µM and the TGI (CAKI-1 renal) was 33.2 µM. It also gave a TGI (A549 NSCLC) of 48.5 µM, a TGI (IGROV1 ovarian) of 43.9 µM and a TGI (NCI/ADR-RES ovarian) of 44.7 µM. The TGI (OVCAR-5 ovarian) was 44.9 µM, the TGI (PC-3 prostate) was 32.7 µM and the TGI (KM12 colon) was 33.4 µM. For the same molecule, the TGI (NCI-H23 lung) was 54.7 µM, the TGI (RPMI-8226 leukemia) was over 100 µM and the TGI (MDA-MB-435) was 47.9 µM. For the same molecule, the TGI (MOLT-4 leukemia) was over 100 µM, the TGI (A498 renal) was 34.9 µM and the TGI (DU-145 prostate) was 33.1 µM. It also gave a TGI (MDA-N) of 40.6 µM and a TGI (SN12C renal) of 32.4 µM.
CSc1cc(Cl)c(C)cc1S(=O)(=O)NC(=O)NNc1ccccn1 showed a TGI (U251 CNS) of over 100 µM, a TGI (HCC-2998 colon) of over 100 µM and a TGI (HOP-62 NSCLC) of over 100 µM. The TGI (HCT-15 colon) was over 100 µM, the TGI (CCRF-CEM leukemia) was over 100 µM and the TGI (SF-295 CNS) was over 100 µM. It also gave a TGI (MDA-MB-231 breast) of over 100 µM, a TGI (SNB-19 CNS) of over 100 µM and a TGI (COLO 205 colon) of over 100 µM. It also gave a TGI (OVCAR-8 ovarian) of over 100 µM, a TGI (HT29 colon) of over 100 µM and a TGI (SK-MEL-2 melanoma) of over 100 µM. It also gave a TGI (M14 melanoma) of over 100 µM, a TGI (HS 578T breast) of over 100 µM and a TGI (ACHN renal) of over 100 µM. It also gave a TGI (EKVX NSCLC) of over 100 µM, a TGI (NCI-H460 lung) of over 100 µM and a TGI (SK-MEL-28 melanoma) of over 100 µM. It also gave a TGI (SK-MEL-5 melanoma) of over 100 µM, a TGI (LOX IMVI melanoma) of over 100 µM and a TGI (MCF7 breast) of over 100 µM. For the same molecule, the TGI (SR leukemia) was over 100 µM, the TGI (T-47D breast) was over 100 µM and the TGI (SF-539 CNS) was over 100 µM. It also gave a TGI (HCT-116 colon) of over 100 µM, a TGI (786-0 renal) of over 100 µM and a TGI (OVCAR-4 ovarian) of over 100 µM. It also gave a TGI (MALME-3M melanoma) of over 100 µM, a TGI (RXF 393 renal) of over 100 µM and a TGI (SF-268 CNS) of over 100 µM. For the same molecule, the TGI (K-562 leukemia) was over 100 µM, the TGI (NCI-H522 lung) was over 100 µM and the TGI (SK-OV-3 ovarian) was over 100 µM. It also gave a TGI (OVCAR-3 ovarian) of over 100 µM, a TGI (NCI-H226 lung) of over 100 µM and a TGI (SNB-75 CNS) of over 100 µM. For the same molecule, the TGI (SW-620 colon) was over 100 µM, the TGI (CAKI-1 renal) was over 100 µM and the TGI (A549 NSCLC) was over 100 µM. The TGI (IGROV1 ovarian) was over 100 µM, the TGI (NCI/ADR-RES ovarian) was over 100 µM and the TGI (OVCAR-5 ovarian) was over 100 µM. It also gave a TGI (PC-3 prostate) of over 100 µM, a TGI (KM12 colon) of over 100 µM and a TGI (MDA-MB-435) of over 100 µM. The TGI (MOLT-4 leukemia) was over 100 µM, the TGI (A498 renal) was over 100 µM and the TGI (DU-145 prostate) was over 100 µM. It also gave a TGI (MDA-N) of over 100 µM and a TGI (SN12C renal) of over 100 µM.
